Results: ChEMBL document CHEMBL1201862, “PubChem BioAssay data set” (2004)
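Following 48 hours of exposure in 96-well plates, responses at five concentrations were used to interpolate endpoints linearly. GI50: concentration for 50% inhibition of growth.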 Active and inactive are the calls of the source. No stated cut-off is given here; in the data, active = GI50 up to about 1.1 µM and inactive = higher.

How the values were obtained:
Assay in all cases: NCI-60 cell line screen, 48 h
ACHN = tested on: ACHN
DLD-1 = tested on: DLD-1
DMS-273 = tested on: DMS-273
EKVX = tested on: EKVX
HCC 2998 = tested on: HCC 2998
HCT-116 = tested on: HCT-116
HL-60 = tested on: HL-60
MOLT-4 = tested on: MOLT-4
Malme-3M = tested on: Malme-3M
NCI-H226 = tested on: NCI-H226
NCI-H460 = tested on: NCI-H460
OVCAR-3 = tested on: OVCAR-3
OVCAR-5 = tested on: OVCAR-5
RXF 393 = tested on: RXF 393
SF-295 = tested on: SF-295
SN12C = tested on: SN12C
SNB-19 = tested on: SNB-19
UACC-257 = tested on: UACC-257

Measured: GI50

COc1cc(/C=C2/C(=O)N(C(=O)OCc3ccccc3)C(Cc3cc(OC)c(OC)c(C)c3OC)C(=O)N2Cc2ccccc2)c(OC)c(C)c1OC (stereo not given)
inactive: ACHN > 100 µM | DLD-1 > 100 µM | DMS-273 40.6 µM | EKVX > 100 µM | HCC 2998 > 100 µM | HCT-116 29.3 µM | HL-60 7.52 µM | MOLT-4 8.09 µM | Malme-3M 76.4 µM | NCI-H226 2 µM | NCI-H460 3.52 µM | OVCAR-3 48.8 µM | OVCAR-5 > 100 µM | RXF 393 > 100 µM | SF-295 > 100 µM | SN12C > 100 µM | SNB-19 > 100 µM | UACC-257 9.48 µM

CS/C(=N/C(=O)c1ccccc1)SCCS/C(=N\C(=O)c1ccccc1)SC
inactive: ACHN > 100 µM | DLD-1 > 100 µM | DMS-273 > 100 µM | EKVX > 100 µM | HCC 2998 > 100 µM | HCT-116 > 100 µM | HL-60 > 100 µM | MOLT-4 > 100 µM | Malme-3M > 100 µM | NCI-H226 > 100 µM | NCI-H460 > 100 µM | OVCAR-3 68.5 µM | OVCAR-5 > 100 µM | RXF 393 73.6 µM | SF-295 > 100 µM | SN12C > 100 µM | SNB-19 > 100 µM | UACC-257 > 100 µM

C=CCNC(=O)ON1C(=O)CCC1=O
inactive: ACHN > 100 µM | DLD-1 > 100 µM | DMS-273 > 100 µM | EKVX > 100 µM | HCC 2998 > 100 µM | HCT-116 > 100 µM | HL-60 > 100 µM | MOLT-4 > 100 µM | Malme-3M > 100 µM | NCI-H460 > 100 µM | OVCAR-3 > 100 µM | OVCAR-5 > 100 µM | RXF 393 > 100 µM | SF-295 > 100 µM | SN12C > 100 µM | SNB-19 > 100 µM | UACC-257 > 100 µM

CC(=O)O[C@H]1CCC2[C@@H]3CCC4C(=O)c5oncc5C[C@]4(C)C3CC[C@@]21C (stereo not given in full)
inactive: ACHN 63 µM | DLD-1 > 100 µM | DMS-273 > 100 µM | EKVX 22.4 µM | HCC 2998 > 100 µM | HCT-116 > 10 µM | HL-60 > 100 µM | MOLT-4 > 100 µM | Malme-3M > 100 µM | NCI-H226 > 10 µM | NCI-H460 > 100 µM | OVCAR-3 > 100 µM | OVCAR-5 > 100 µM | RXF 393 > 100 µM | SF-295 39.5 µM | SN12C > 100 µM | SNB-19 > 10 µM | UACC-257 > 100 µM

Cc1ccc(Sc2cc([N+](=O)[O-])cc(Sc3ccc(C)cc3)c2Sc2ccc(C)cc2)cc1
inactive: ACHN > 100 µM | DLD-1 > 100 µM | DMS-273 > 100 µM | EKVX > 100 µM | HCC 2998 > 100 µM | HCT-116 > 100 µM | HL-60 > 100 µM | MOLT-4 34.1 µM | Malme-3M > 100 µM | NCI-H226 > 100 µM | NCI-H460 > 100 µM | OVCAR-3 > 100 µM | OVCAR-5 > 100 µM | RXF 393 36 µM | SF-295 > 100 µM | SN12C > 100 µM | SNB-19 66.8 µM | UACC-257 > 100 µM

OCCCc1cnco1
inactive: ACHN > 100 µM | DLD-1 > 100 µM | DMS-273 > 100 µM | EKVX > 100 µM | HCC 2998 > 100 µM | HCT-116 > 100 µM | HL-60 > 100 µM | MOLT-4 > 100 µM | Malme-3M > 100 µM | NCI-H226 > 100 µM | NCI-H460 > 100 µM | OVCAR-3 > 100 µM | OVCAR-5 > 100 µM | RXF 393 > 100 µM | SF-295 > 100 µM | SN12C > 100 µM | SNB-19 > 100 µM | UACC-257 > 100 µM

CC(C)c1cccc(C(C)C)c1N1C(=O)C(=O)C(c2nc3ccccc3o2)C(=O)C1=O
inactive: ACHN > 100 µM | DLD-1 31.6 µM | DMS-273 68.2 µM | EKVX > 100 µM | HCC 2998 24.3 µM | HCT-116 25.8 µM | HL-60 30.3 µM | Malme-3M 91.4 µM | NCI-H226 19.2 µM | NCI-H460 > 100 µM | OVCAR-3 33.7 µM | OVCAR-5 > 100 µM | RXF 393 92.3 µM | SF-295 > 100 µM | SN12C > 100 µM | SNB-19 > 100 µM | UACC-257 > 100 µM

COC1=CC(O)(CC(N)=O)c2ccccc2C1=O (stereo not given)
inactive: ACHN > 100 µM | DLD-1 > 100 µM | DMS-273 > 100 µM | EKVX > 100 µM | HCC 2998 > 100 µM | HCT-116 > 100 µM | HL-60 > 100 µM | MOLT-4 > 100 µM | Malme-3M > 100 µM | NCI-H226 > 100 µM | NCI-H460 > 100 µM | OVCAR-3 > 100 µM | OVCAR-5 > 100 µM | RXF 393 > 100 µM | SF-295 > 100 µM | SN12C > 100 µM | SNB-19 > 100 µM | UACC-257 > 100 µM

N/C(=N\O)N/N=C\c1c2ccccc2c(Cl)c2ccccc12
inactive: ACHN 4.33 µM | DLD-1 5.79 µM | DMS-273 1.98 µM | EKVX 3.03 µM | HCC 2998 3.66 µM | HCT-116 3.66 µM | HL-60 2.19 µM | MOLT-4 4.18 µM | Malme-3M 4.6 µM | NCI-H226 2.13 µM | NCI-H460 2.23 µM | OVCAR-3 3.47 µM | OVCAR-5 3.05 µM | RXF 393 1.22 µM | SF-295 2.75 µM | SN12C 6.79 µM | SNB-19 11.9 µM | UACC-257 1.42 µM

CCN(CC)C(=O)c1c(Cl)cc(N(CC)CC)oc1=O
inactive: ACHN > 100 µM | DLD-1 > 100 µM | DMS-273 > 100 µM | EKVX > 100 µM | HCC 2998 > 100 µM | HCT-116 > 100 µM | HL-60 > 100 µM | MOLT-4 > 100 µM | Malme-3M > 100 µM | NCI-H226 > 100 µM | NCI-H460 > 100 µM | OVCAR-3 > 100 µM | RXF 393 > 100 µM | SF-295 > 100 µM | SN12C > 100 µM | SNB-19 > 100 µM | UACC-257 > 100 µM

C/C(C=O)=C1\C(O)C[C@]1(C)C1CC(C)(C)CC1O (stereo not given in full)
inactive: ACHN > 100 µM | DLD-1 > 100 µM | DMS-273 > 100 µM | EKVX > 100 µM | HCC 2998 > 100 µM | HCT-116 72.9 µM | HL-60 91 µM | MOLT-4 35.7 µM | Malme-3M > 100 µM | NCI-H226 > 100 µM | NCI-H460 > 100 µM | OVCAR-3 28.8 µM | OVCAR-5 > 100 µM | RXF 393 > 100 µM | SF-295 41.4 µM | SN12C > 100 µM | SNB-19 > 100 µM | UACC-257 > 100 µM
